# Test results from patent publication US20250320184A1 (SIRONAX LTD., priority 2022, published 2025).
# Target: T1, SARM1 (50-724) (Homo sapiens, UniProt Q6SZW1)
# T1 sequence (Q6SZW1 50-724): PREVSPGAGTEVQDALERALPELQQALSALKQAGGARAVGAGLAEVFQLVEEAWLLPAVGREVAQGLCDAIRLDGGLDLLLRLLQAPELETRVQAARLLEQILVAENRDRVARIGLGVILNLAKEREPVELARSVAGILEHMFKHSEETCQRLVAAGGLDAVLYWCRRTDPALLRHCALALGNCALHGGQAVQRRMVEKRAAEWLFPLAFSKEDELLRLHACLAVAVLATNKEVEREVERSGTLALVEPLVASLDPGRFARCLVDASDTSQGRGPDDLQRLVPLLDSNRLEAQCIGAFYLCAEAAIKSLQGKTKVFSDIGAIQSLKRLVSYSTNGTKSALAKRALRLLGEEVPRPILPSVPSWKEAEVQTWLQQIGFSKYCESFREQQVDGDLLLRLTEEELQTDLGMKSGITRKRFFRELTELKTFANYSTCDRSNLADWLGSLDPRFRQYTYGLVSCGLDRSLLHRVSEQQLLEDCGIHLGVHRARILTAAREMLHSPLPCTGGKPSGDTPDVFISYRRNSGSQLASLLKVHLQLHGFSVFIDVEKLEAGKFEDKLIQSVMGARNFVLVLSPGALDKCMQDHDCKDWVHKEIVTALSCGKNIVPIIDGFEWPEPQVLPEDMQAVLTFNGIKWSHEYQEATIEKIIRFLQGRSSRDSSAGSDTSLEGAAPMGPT
# Experiment: biochemical
# Method: An enzymatic assay was performed in a 384-well plate using Dulbecco's phosphate-buffered saline (PBS) as the reaction buffer. […] The reaction was initiated by adding a mixture of 200 μM nicotinamide mononucleotide (NMN) as activator and 100 μM NAD^+ as substrate. After 1 h of incubation at room temperature, the reaction was terminated with 10 times volume of 70% acetonitrile, then centrifuged at 3800 rpm for 10 min.
row,SMILES,IC50 [nM]
1,"Cc1c2c(F)cc(NC(C)c3nc(Cl)c(Cl)s3)cc2nn1CC(N)=O (racemic) [Compound 389, 2-(6-((1-(4,5-dichlorothiazol-2-yl)ethyl)amino)-4-fluoro-3-methyl-2H-indazol-2-yl)acetamide]",< 100
2,"Cc1cc(F)cc(C(C)Nc2ccc3c(c2)C(=O)NCC3)c1 (racemic) [Example 93, 7-((1-(3-fluoro-5-methylphenyl)ethyl)amino)-3,4-dihydroisoquinolin-1(2H)-one]",500 to 1000
3,"CC(Nc1ccc2c(c1)C(=O)NCC2)c1ccc(Cl)c(F)c1 (racemic) [Example 96, 7-((1-(4-chloro-3-fluorophenyl)ethyl)amino)-3,4-dihydroisoquinolin-1(2H)-one]",> 1000
4,"CC(Nc1ccc2c(c1)C(=O)NCC2)c1cc(Cl)cc(Cl)n1 (racemic) [Example 97, 7-((1-(4,6-dichloropyridin-2-yl)ethyl)amino)-3,4-dihydroisoquinolin-1(2H)-one]",500 to 1000
5,"CC(Nc1ccc2c(c1)C(=O)NCC2)c1cc(Cl)nc(Cl)c1 (racemic) [Example 98, 7-((1-(2,6-dichloropyridin-4-yl)ethyl)amino)-3,4-dihydroisoquinolin-1(2H)-one]",> 1000
6,"Cc1cccc(C(C)Nc2ccc3c(c2)C(=O)NCC3)c1F (racemic) [Example 99, 7-((1-(2-fluoro-3-methylphenyl)ethyl)amino)-3,4-dihydroisoquinolin-1(2H)-one]",> 1000
7,"CC(Nc1ccc2c(c1)C(=O)NCC2)c1cc(F)cc(Cl)c1 (racemic) [Example 101, 7-((1-(3-chloro-5-fluorophenyl)ethyl)amino)-3,4-dihydroisoquinolin-1(2H)-one]",100 to 500
8,"CC(Nc1ccc2c(c1)C(=O)NCC2)c1ccc(Cl)c(Cl)c1 (racemic) [Example 104, 7-((1-(3,4-dichlorophenyl)ethyl)amino)-3,4-dihydroisoquinolin-1(2H)-one]",500 to 1000
9,"Cc1ccc(F)cc1C(C)Nc1ccc2c(c1)C(=O)NCC2 (racemic) [Example 105, 7-((1-(5-fluoro-2-methylphenyl)ethyl)amino)-3,4-dihydroisoquinolin-1(2H)-one]",100 to 500
10,"CC(Nc1ccc2c(c1)C(=O)NCC2)c1cccc(F)c1F (racemic) [Example 106, 7-((1-(2,3-difluorophenyl)ethyl)amino)-3,4-dihydroisoquinolin-1(2H)-one]",> 1000
11,"CCC(Nc1ccc2c(c1)C(=O)NCC2)c1cc(C)cc(F)c1 (racemic) [Example 109, 7-((1-(3-fluoro-5-methylphenyl)propyl)amino)-3,4-dihydroisoquinolin-1(2H)-one]",100 to 500
12,"CC(Nc1ccc2cc[nH]c(=O)c2c1)c1cccc(F)c1 (racemic) [Example 113, 7-((1-(3-fluorophenyl)ethyl)amino)isoquinolin-1(2H)-one]",500 to 1000
13,"CC(Nc1ccc2cc[nH]c(=O)c2c1)c1cc(F)cc(F)c1 (racemic) [Example 114, 7-((1-(3,5-difluorophenyl)ethyl)amino)isoquinolin-1(2H)-one]",100 to 500
14,"CC(Nc1ccc2cc[nH]c(=O)c2c1)c1ccc(Cl)cc1 (racemic) [Example 116, 7-((1-(4-chlorophenyl)ethyl)amino)isoquinolin-1(2H)-one]",> 1000
15,"CC(Nc1ccc2c(c1)C(=O)NCC2)c1cnc(Cl)c(Cl)c1 (racemic) [Example 119, 7-((1-(5,6-dichloropyridin-3-yl)ethyl)amino)-3,4-dihydroisoquinolin-1(2H)-one]",500 to 1000
16,"Cc1ccc(C(C)Nc2ccc3c(c2)C(=O)NCC3)cc1F (racemic) [Example 123, 7-((1-(3-fluoro-4-methylphenyl)ethyl)amino)-3,4-dihydroisoquinolin-1(2H)-one]",> 1000
17,"CCCC(Nc1ccc2c(c1)C(=O)NCC2)c1cc(C)cc(F)c1 (racemic) [Example 125, 7-((1-(3-fluoro-5-methylphenyl)butyl)amino)-3,4-dihydroisoquinolin-1(2H)-one]",500 to 1000
18,"CCC(Nc1ccc2cc[nH]c(=O)c2c1)c1cccc(Cl)c1 (racemic) [Example 126, 7-((1-(3-chlorophenyl)propyl)amino)isoquinolin-1(2H)-one]",100 to 500
19,"Cc1cc(F)cc(C(Cc2ccccc2)Nc2ccc3c(c2)C(=O)NCC3)c1 (racemic) [Example 127, 7-((1-(3-fluoro-5-methylphenyl)-2-phenylethyl)amino)-3,4-dihydroisoquinolin-1(2H)-one]",> 1000
20,"CC(Nc1ccc2cc[nH]c(=O)c2c1)c1sc(Cl)nc1Cl (racemic) [Example 130, 7-((1-(2,4-dichlorothiazol-5-yl)ethyl)amino)isoquinolin-1(2H)-one]",100 to 500

# Other lines, results leading:
row,IC50 [nM],SMILES
1,100 to 500,"CC(Nc1ccc2nc[nH]c(=O)c2n1)c1ccc(F)c(Cl)c1Cl (racemic) [Compound 384, 6-((1-(2,3-dichloro-4-fluorophenyl)ethyl)amino)pyrido[3,2-d]pyrimidin-4(3H)-one]"
2,100 to 500,"CC(Nc1ccc2c(c1)C(=O)NCC2)c1cccc(Cl)c1Cl (racemic) [Example 100, 7-((1-(2,3-dichlorophenyl)ethyl)amino)-3,4-dihydroisoquinolin-1(2H)-one]"
3,< 100,"CC(Nc1ccc2cc[nH]c(=O)c2c1)c1cccc(Cl)c1Cl (racemic) [Example 103, 7-((1-(2,3-dichlorophenyl)ethyl)amino)isoquinolin-1(2H)-one]"
4,100 to 500,"CC(Nc1ccc2cc[nH]c(=O)c2c1)c1cnc(Cl)c(Cl)c1 (racemic) [Example 107, 7-((1-(5,6-dichloropyridin-3-yl)ethyl)amino)isoquinolin-1(2H)-one]"
5,100 to 500,"CC(Nc1ccc2cc[nH]c(=O)c2c1)c1cccc(Cl)c1 (racemic) [Example 108, 7-((1-(3-chlorophenyl)ethyl)amino)isoquinolin-1(2H)-one]"
6,100 to 500,"CC(Nc1ccc2cc[nH]c(=O)c2c1)c1ccccc1Cl (racemic) [Example 110, 7-((1-(2-chlorophenyl)ethyl)amino)isoquinolin-1(2H)-one]"
7,> 1000,"CC(Nc1ccc2cc[nH]c(=O)c2c1)c1ccccc1F (racemic) [Example 115, 7-((1-(2-fluorophenyl)ethyl)amino)isoquinolin-1(2H)-one]"
8,100 to 500,"COc1ncc(C(C)Nc2ccc3cc[nH]c(=O)c3c2)cc1Cl (racemic) [Example 117, 7-((1-(5-chloro-6-methoxypyridin-3-yl)ethyl)amino)isoquinolin-1(2H)-one]"
9,< 100,"CC(Nc1ccc2cc[nH]c(=O)c2c1)c1nccc(Cl)c1Cl (racemic) [Example 118, 7-((1-(3,4-dichloropyridin-2-yl)ethyl)amino)isoquinolin-1(2H)-one]"
10,> 1000,"CC(Nc1ccc2c(c1)C(=O)NC2)c1cccc(Cl)c1Cl (racemic) [Example 120, 6-((1-(2,3-dichlorophenyl)ethyl)amino)isoindolin-1-one]"
11,500 to 1000,"CC(Nc1ccc2c(c1)NC(=O)CC2)c1cccc(Cl)c1Cl (racemic) [Example 121, 7-((1-(2,3-dichlorophenyl)ethyl)amino)-3,4-dihydroquinolin-2(1H)-one]"
12,500 to 1000,"CC(Nc1ccc2cc[nH]c(=O)c2c1)c1cc(Cl)cnc1Cl (racemic) [Example 122, 7-((1-(2,5-dichloropyridin-3-yl)ethyl)amino)isoquinolin-1(2H)-one]"
13,< 100,"CC(Nc1ccc2nc[nH]c(=O)c2c1)c1cccc(Cl)c1Cl (racemic) [Example 128, 6-((1-(2,3-dichlorophenyl)ethyl)amino)quinazolin-4(3H)-one]"
14,500 to 1000,"CC(Nc1ccc2cccnc2c1)c1cccc(Cl)c1Cl (racemic) [Example 129, N-(1-(2,3-dichlorophenyl)ethyl)quinolin-7-amine]"
15,100 to 500,"CC(Nc1ccc2cc[nH]c(=O)c2c1)c1ccnc(Cl)c1Cl (racemic) [Example 131, 7-((1-(2,3-dichloropyridin-4-yl)ethyl)amino)isoquinolin-1(2H)-one]"
16,< 100,"CC(Nc1ccc2cc[nH]c(=O)c2c1)c1cc(Cl)ccc1Cl (racemic) [Example 132, 7-((1-(2,5-dichlorophenyl)ethyl)amino)isoquinolin-1(2H)-one]"
17,100 to 500,"CC(Nc1ccc2ncn(C)c(=O)c2c1)c1cccc(Cl)c1Cl (racemic) [Example 133, 6-((1-(2,3-dichlorophenyl)ethyl)amino)-3-methylquinazolin-4(3H)-one]"
18,> 1000,"CC(Nc1ccc2ccccc2n1)c1cccc(Cl)c1Cl (racemic) [Example 134, N-(1-(2,3-dichlorophenyl)ethyl)quinolin-2-amine]"
19,< 100,"CC(Nc1ccc2cc[nH]c(=O)c2c1)c1cc(F)ccc1Cl (racemic) [Example 135, 7-((1-(2-chloro-5-fluorophenyl)ethyl)amino)isoquinolin-1(2H)-one]"
20,< 100,"CC(Nc1ccc2cc[nH]c(=O)c2c1)c1cc(F)cc(Cl)c1Cl (racemic) [Example 136, 7-((1-(2,3-dichloro-5-fluorophenyl)ethyl)amino)isoquinolin-1(2H)-one]"
21,< 100,"CC(Nc1ccc2cc[nH]c(=O)c2c1)c1cc(F)cc(F)c1Cl (racemic) [Example 137, 7-((1-(2-chloro-3,5-difluorophenyl)ethyl)amino)isoquinolin-1(2H)-one]"
